The values that follow come from US9315490B2, “2,5-substituted pyrimidines” (Grünenthal GmbH, priority 2014, dated 2016).

Structures are written as SMILES.

For the first assay, the target named is T1, human PDE4B1 (Homo sapiens, UniProt Q07343).
T1 construct: host or cells: Sf9 cells
T1 sequence (Q07343 whole entry): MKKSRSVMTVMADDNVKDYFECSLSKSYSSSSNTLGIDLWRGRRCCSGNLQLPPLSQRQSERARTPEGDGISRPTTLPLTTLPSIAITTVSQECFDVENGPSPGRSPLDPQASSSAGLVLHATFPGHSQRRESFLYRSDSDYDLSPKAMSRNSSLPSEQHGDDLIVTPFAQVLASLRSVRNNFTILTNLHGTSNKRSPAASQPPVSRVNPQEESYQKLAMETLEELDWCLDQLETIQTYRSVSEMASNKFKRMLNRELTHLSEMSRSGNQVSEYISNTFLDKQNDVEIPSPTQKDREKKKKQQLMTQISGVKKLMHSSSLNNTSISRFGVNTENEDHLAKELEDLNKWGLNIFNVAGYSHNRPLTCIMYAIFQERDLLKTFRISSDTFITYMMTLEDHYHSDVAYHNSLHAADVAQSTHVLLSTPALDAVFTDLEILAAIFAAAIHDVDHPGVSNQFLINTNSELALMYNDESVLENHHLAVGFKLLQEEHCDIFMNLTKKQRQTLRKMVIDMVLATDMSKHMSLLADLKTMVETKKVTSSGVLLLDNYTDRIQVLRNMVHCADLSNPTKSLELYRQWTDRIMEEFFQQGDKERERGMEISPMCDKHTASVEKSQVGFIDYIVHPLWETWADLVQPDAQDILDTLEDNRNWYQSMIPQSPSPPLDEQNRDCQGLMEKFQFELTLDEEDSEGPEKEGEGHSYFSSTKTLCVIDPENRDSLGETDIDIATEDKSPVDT
The assay is described as follows: cAMP HTRF assay to determine the activity of hPDE4B1. Format: biochemical. The settings on record: inhibition of PDE4B at a test concentration of 1 μM. In a few lines: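 […], using HTRF quantitation of residual cAMP after 1 mM IBMX stop and 60 min detection. Enzyme was Sf9-expressed human PDE4B1 incubated 30 min at room temperature with 40 nM final cAMP at pH 7.8.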
In general terms: Time-resolved FRET reads energy transfer from a long-lived donor to a nearby acceptor.
With `C[S+]([O-])c1cn(-c2ncc(-c3ccccc3F)cn2)c2cc(C(=O)N3CCN(CCO)CC3)ccc12` (centres unmarked) [Example 389, (1-(5-(2-Fluorophenyl)pyrimidin-2-yl)-3-(methylsulfinyl)-1H-indol-6-yl)(4-(2-hydroxyethyl)piperazin-1-yl)methanone], the inhibition (usually the share of the control response that was lost under treatment) at 1 µM was found to be 52%.
Consider `C[S+]([O-])c1cn(-c2ncc(-c3ccccc3F)cn2)c2cc(C(=O)N3CCS(=O)(=O)CC3)ccc12` (centres unmarked) [Example 390, (1,1-Dioxidothiomorpholino)(1-(5-(2-fluorophenyl)pyrimidin-2-yl)-3-(methylsulfinyl)-1H-indol-6-yl)methanone], for which the inhibition at 1 µM stood at 6%.
Take `C[S+]([O-])c1cn(-c2ncc(-c3ccccc3F)cn2)c2cc(C(=O)N3CCN(CCC#N)CC3)ccc12` (centres unmarked) [Example 391, 3-(4-(1-(5-(2-Fluorophenyl)pyrimidin-2-yl)-3-(methylsulfinyl)-1H-indole-6-carbonyl)piperazin-1-yl)propanenitrile]: at 1 µM the inhibition was 31%.
For `COCCN1CCN(C(=O)c2ccc3c([S+](C)[O-])cn(-c4ncc(-c5ccccc5F)cn4)c3c2)CC1` (centres unmarked) [Example 392, (1-(5-(2-Fluorophenyl)pyrimidin-2-yl)-3-(methylsulfinyl)-1H-indol-6-yl)(4-(2-methoxyethyl)piperazin-1-yl)methanone], the inhibition at 1 µM amounted to 0%.
Same read-out and setting: then `CCOC(=O)C1CCN(C(=O)c2ccc3c([S+](C)[O-])cn(-c4ncc(-c5ccccc5F)cn4)c3c2)CC1` (centres unmarked) [Example 393, Ethyl 1-(1-(5-(2-fluorophenyl)pyrimidin-2-yl)-3-(methylsulfinyl)-1H-indole-6-carbonyl)piperidine-4-carboxylate], with 10%; and `CCOC(=O)N1CCN(C(=O)c2ccc3c([S+](C)[O-])cn(-c4ncc(-c5ccccc5F)cn4)c3c2)CC1` (centres unmarked) [Example 394, Ethyl 4-(1-(5-(2-fluorophenyl)pyrimidin-2-yl)-3-(methylsulfinyl)-1H-indole-6-carbonyl)piperazine-1-carboxylat], with 0%.
On the same count and under the same terms, then `CN(C)C(=O)CN1CCN(C(=O)c2ccc3c([S+](C)[O-])cn(-c4ncc(-c5ccccc5F)cn4)c3c2)CC1` (centres unmarked) [Example 395, 2-(4-(1-(5-(2-Fluorophenyl)pyrimidin-2-yl)-3-(methylsulfinyl)-1H-indole-6-carbonyl)piperazin-1-yl)-N,N-dimethylacetamide], with 0%.

In the next assay the target is T1, human PDE4B1. The assay can be described thus: TR-FRET assay using the LANCE Ultra cAMP kit to determine the activity of hPDE4B1. Format: biochemical. The note with it: test concentration 1 μM, 1 µM. The text has this: TR-FRET Assay Using the LANCE® Ultra cAMP Kit to Determine the Activity of hPDE4B1
The effects of the compounds on the activity of the human PDE4B1 was quantified by measuring the production of 5′AMP from cAMP using a human recombinant enzyme expressed in Sf9 cells and the LANCE® Ultra cAMP kit, a TR-FRET detection method from PerkinElmer. The human PDE4B1 enzyme was purchased from SignalChem Lifesciences (Catalog# P92-31BG, Lot# H296-2).
The test compound, reference compound or water (control) was mixed with the enzyme (0.96 U) in a reaction buffer containing 50 mM Tris-HCl, 50 mM MgCl2 and 5 mM DTT (pH 8.5). Thereafter, the reaction was initiated by addition of 500 nM cAMP (substrate) and the mixture was incubated for 30 minutes at room temperature. For control basal measurements, the enzyme was omitted from the reaction mixture. After 30 minutes, the reaction was stopped and diluted by a factor of 100 with the reaction buffer supplemented with 500 μM IBMX. The fluorescence donor (europium chelate-labeled cAMP) and the fluorescence acceptor (anti-cAMP antibody labeled with the ULight™ dye) were then added together with 500 μM IBMX to a 10 μl aliquot. After 60 minutes, the fluorescence transfer corresponding to the amount of residual cAMP was measured at λex=337 nm, λem=620 nm and λem=665 nm using a microplate reader (PHERAstar, BMG). The enzyme activity was determined by dividing the signal measured at 665 nm by that measured at 620 nm (ratio) multiplied by 10000. The results were expressed as percent inhibition of the control enzyme activity. IC50 values (IC50=concentration causing a half-maximal inhibition of control specific activity) were derived from dose response measurements with ten different concentrations (n=3; N=1-3).
Take `Cc1ccnc(-c2cnc(-n3cc([S+](C)[O-])c4ccc(C(=O)N5CCOCC5)cc43)nc2)c1` (single isomer, unassigned) [Example 352, (1-(5-(4-Methylpyridin-2-yl)pyrimidin-2-yl)-3-(methylsulfinyl)-1H-indol-6-yl)(morpholino)methanone]: the “Inhibition in % (inhibition of PDE4B)” value is on record as 95%.

The assay is the same for the next values; noted with them: test concentration 1 μM, read-out: Inhibition in % (inhibition of PDE4B).
On to `Cc1ccnc(-c2cnc(-n3cc([S+](C)[O-])c4ccc(C(=O)N5CCOCC5)cc43)nc2)c1` (single isomer, unassigned) [Example 351, (1-(5-(4-Methylpyridin-2-yl)pyrimidin-2-yl)-3-(methylsulfinyl)-1H-indol-6-yl)(morpholino)methanone], for which the inhibition at 1 µM came out at 93%.
Consider `CSc1cn(-c2ncc(-c3ccccc3F)cn2)c2cc(C(=O)N3CCOCC3)ccc12` [Example 1d, (1-(5-(2-Fluorophenyl)pyrimidin-2-yl)-3-(methylthio)-1H-indol-6-yl)(morpholino)methanone], for which the inhibition at 1 µM came out at 89%.
Still for that read-out and setting: then `C[S+]([O-])c1cn(-c2ncc(-c3ccccc3F)cn2)c2cc(C(=O)N3CC4CNCC4C3)ccc12` (centres unmarked) [Example 222, (1-(5-(2-Fluorophenyl)pyrimidin-2-yl)-3-(methylsulfinyl)-1H-indol-6-yl)(hexahydropyrrolo[3,4-c]pyrrol-2(1H)-yl)methanone], with 73%; and `Cc1ccnc(-c2cnc(-n3cc([S+](C)[O-])c4ccc(C(=O)N5C[C@@H]6C[C@H]5CN6)cc43)nc2)c1` (stereo partly drawn) [Example 245, (1S,4S)-2,5-Diazabicyclo[2.2.1]heptan-2-yl(1-(5-(4-methylpyridin-2-yl)pyrimidin-2-yl)-3-(methylsulfinyl)-1H-indol-6-yl)methanone], with 86%; and `CCc1ccnc(-c2cnc(-n3cc([S+](C)[O-])c4ccc(C(=O)N5C[C@@H]6C[C@H]5CN6)cc43)nc2)c1` (stereo partly drawn) [Example 246, (1S,4S)-2,5-Diazabicyclo[2.2.1]heptan-2-yl(1-(5-(4-ethylpyridin-2-yl)pyrimidin-2-yl)-3-(methylsulfinyl)-1H-indol-6-yl)methanone], with 96%.
The same measure, in the same setting: then `Cc1cccc(-c2cnc(-n3cc([S+](C)[O-])c4ccc(C(=O)N5C[C@@H]6C[C@H]5CN6)cc43)nc2)n1` (stereo partly drawn) [Example 247, (1S,4S)-2,5-Diazabicyclo[2.2.1]heptan-2-yl(1-(5-(6-methylpyridin-2-yl)pyrimidin-2-yl)-3-(methylsulfinyl)-1H-indol-6-yl)methanone], with 90%.
Take `CN(C)c1ccnc(-c2cnc(-n3cc([S+](C)[O-])c4ccc(C(=O)N5C[C@@H]6C[C@H]5CN6)cc43)nc2)c1` (stereo partly drawn) [Example 248, (1S,4S)-2,5-Diazabicyclo[2.2.1]heptan-2-yl(1-(5-(4-(dimethylamino)pyridin-2-yl)pyrimidin-2-yl)-3-(methylsulfinyl)-1H-indol-6-yl)methanone]: the inhibition at 1 µM was determined as 97%.
Regarding `Cc1ccc(F)c(-c2cnc(-n3cc([S+](C)[O-])c4ccc(C(=O)N5C[C@@H]6C[C@H]5CN6)cc43)nc2)c1` (stereo partly drawn) [Example 249, (1S,4S)-2,5-Diazabicyclo[2.2.1]heptan-2-yl(1-(5-(2-fluoro-5-methylphenyl)pyrimidin-2-yl)-3-(methylsulfinyl)-1H-indol-6-yl)methanone], the inhibition at 1 µM was determined as 93%.
Still for that read-out and setting: then `CC(C)c1ccnc(-c2cnc(-n3cc([S+](C)[O-])c4ccc(C(=O)N5CCOCC5)cc43)nc2)c1` (centres unmarked) [Example 256, (1-(5-(4-Isopropylpyridin-2-yl)pyrimidin-2-yl)-3-(methylsulfinyl)-1H-indol-6-yl)(morpholino)methanone], with 96%.
With `CC#Cc1ccnc(-c2cnc(-n3cc([S+](C)[O-])c4ccc(C(=O)N5CCOCC5)cc43)nc2)c1` (centres unmarked) [Example 257, (3-(Methylsulfinyl)-1-(5-(4-(prop-1-yn-1-yl)pyridin-2-yl)pyrimidin-2-yl)-1H-indol-6-yl)(morpholino)methanone], the inhibition at 1 µM worked out at 93%.

Staying with this assay, now noted: test concentration 10 μM (marked in cell), 10 µM.
On to `CC(O)c1ccc(F)c(-c2cnc(-n3cc(S(C)(=O)=O)c4ccc(C(=O)N5CCOCC5)cc43)nc2)c1` (single isomer, unassigned) [Example 345, (1-(5-(2-Fluoro-5-(1-hydroxyethyl)phenyl)pyrimidin-2-yl)-3-(methylsulfonyl)-1H-indol-6-yl)(morpholino)methanone], for which the “Inhibition in % (inhibition of PDE4B)” value was 95 (10 μM) %.

The same assay, now with this note: test concentration 10 μM (marked in cell), read-out: Inhibition in % (inhibition of PDE4B).
`CN(CC(N)=O)C(=O)c1ccc2c([S+](C)[O-])cn(-c3ncc(-c4cc(C5CC5)ccn4)cn3)c2c1` (single isomer, unassigned) [Example 333, N-(2-Amino-2-oxoethyl)-1-(5-(4-cyclopropylpyridin-2-yl)pyrimidin-2-yl)-N-methyl-3-(methylsulfinyl)-1H-indole-6-carboxamide]: the inhibition at 10 µM came to 87%.
Same read-out and setting: in the case of `CN(CC(N)=O)C(=O)c1ccc2c([S+](C)[O-])cn(-c3ncc(-c4cc(C(C)(C)O)ccc4F)cn3)c2c1` (single isomer, unassigned) [Example 334, N-(2-Amino-2-oxoethyl)-1-(5-(2-fluoro-5-(2-hydroxypropan-2-yl)phenyl)pyrimidin-2-yl)-N-methyl-3-(methylsulfinyl)-1H-indole-6-carboxamide] it was 99%; in that of `CN(CC(N)=O)C(=O)c1ccc2c([S+](C)[O-])cn(-c3ncc(-c4cc(C5CC5)ccc4F)cn3)c2c1` (single isomer, unassigned) [Example 335, N-(2-Amino-2-oxoethyl)-1-(5-(5-cyclopropyl-2-fluorophenyl)pyrimidin-2-yl)-N-methyl-3-(methylsulfinyl)-1H-indole-6-carboxamide], 100%; in that of `CC(O)c1ccc(F)c(-c2cnc(-n3cc(S(C)(=O)=O)c4ccc(C(=O)N5CCOCC5)cc43)nc2)c1` (single isomer, unassigned) [Example 344, (1-(5-(2-Fluoro-5-(1-hydroxyethyl)phenyl)pyrimidin-2-yl)-3-(methylsulfonyl)-1H-indol-6-yl)(morpholino)methanone], 96%.
